Measured values published in BindingDB's records for patent US20250313563 (The Broad Institute, 2025).
“And” between values parts separate entries of the source, which are not always exact repeats. Equal entries are not always repeated.

Experiments:
[1] = target: Glycogen synthase kinase-3 alpha (Homo sapiens, UniProt P49840); assay: TR-FRET Assay
Summary of the method: (§1)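 TR-FRET readout: streptavidin-d2 (40 nM in added detection mix) plus Tb-anti-pSer641 Ab (2 nM in mix). Steps were 30 min compound preincubation, kinase reaction, then EDTA stop.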

[2] = target: Glycogen synthase kinase-3 beta (Homo sapiens, UniProt P49841); assay: TR-FRET Assay
Summary of the method: as §1

Sequence of Glycogen synthase kinase-3 beta (P49841 whole entry): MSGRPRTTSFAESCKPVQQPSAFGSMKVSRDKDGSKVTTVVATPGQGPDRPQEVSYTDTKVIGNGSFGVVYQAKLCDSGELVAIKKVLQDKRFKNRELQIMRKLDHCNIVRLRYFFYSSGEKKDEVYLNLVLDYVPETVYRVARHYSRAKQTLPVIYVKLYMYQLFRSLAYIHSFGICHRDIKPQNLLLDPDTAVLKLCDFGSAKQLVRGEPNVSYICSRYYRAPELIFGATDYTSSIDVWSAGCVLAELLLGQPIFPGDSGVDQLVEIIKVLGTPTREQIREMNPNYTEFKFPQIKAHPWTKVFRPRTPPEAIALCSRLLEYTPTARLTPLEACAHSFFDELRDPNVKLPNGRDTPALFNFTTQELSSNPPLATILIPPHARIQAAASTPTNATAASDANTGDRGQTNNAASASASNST
Sequence of Glycogen synthase kinase-3 alpha (P49840 whole entry): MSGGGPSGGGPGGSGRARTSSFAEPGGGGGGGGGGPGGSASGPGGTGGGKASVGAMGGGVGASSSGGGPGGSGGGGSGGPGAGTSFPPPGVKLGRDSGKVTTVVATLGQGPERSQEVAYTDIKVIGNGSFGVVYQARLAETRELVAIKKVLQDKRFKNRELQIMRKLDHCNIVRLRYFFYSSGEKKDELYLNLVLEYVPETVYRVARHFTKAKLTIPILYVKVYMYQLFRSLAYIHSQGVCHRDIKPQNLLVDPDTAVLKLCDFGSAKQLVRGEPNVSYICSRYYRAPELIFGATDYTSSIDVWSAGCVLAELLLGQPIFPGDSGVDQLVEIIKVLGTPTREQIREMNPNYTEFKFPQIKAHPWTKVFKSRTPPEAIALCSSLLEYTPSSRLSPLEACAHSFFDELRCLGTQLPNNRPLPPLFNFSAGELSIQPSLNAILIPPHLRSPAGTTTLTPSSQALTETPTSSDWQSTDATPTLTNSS

SMILES | IC50 [1] | IC50 [2]
CCC1(c2cccc(-c3cnn(C)c3C)c2)C2=CN=NC2NC2=C1C(=O)NC(C)(C)C2 (configuration not stated) [US20250313563, Compound 944021] | < 100 nM | 100 to 1000 nM
CCC1(c2cccc(-c3ccnc(C)n3)c2)C2=CN=NC2NC2=C1C(=O)CC(C)(C)C2 (configuration not stated) [US20250313563, Compound 948088] | 100 to 1000 nM | 1000 to 5000 nM
CC[C@]1(c2cccc(CN(C)c3ccc(C(F)(F)F)nc3)c2)C2=CN=NC2NC2=C1C(=O)CC(C)(C)C2 (some centres not stated) [US20250313563, Compound 945484] | > 5000 nM | > 5000 nM
CCC1(c2cccc(-c3ccnc(C)c3)c2)C2=CN=NC2NC2=C1C(=O)N(C)C(C)(C)C2 (configuration not stated) [US20250313563, Compound 948302] | < 100 nM | 100 to 1000 nM
CC1(C)CC(=O)C2=C(C1)NC1=C(CN=N1)C21CCN(CC(F)(F)F)CC1 [US20250313563, Compound 874528] | < 100 nM | 100 to 1000 nM
CCC1(c2cccc(-c3ccnn3C)c2)C2=C(CC(C)(C)CC2=O)NC2N=NC(C)=C21 (configuration not stated) [US20250313563, Compound 883992] | < 100 nM | < 100 nM
CC[C@@]1(c2cccc(-c3c(C)nn(C)c3C)c2)C2=C(CC(C)(C)NC2=O)NC2N=NC(C(F)(F)F)=C21 (some centres not stated) [US20250313563, Compound 948421] | < 100 nM | < 100 nM
CCC1(c2cccc(-c3ccnc(C)c3F)c2)C2=CN=NC2NC2=C1C(=O)CC(C)(C)C2 (configuration not stated) [US20250313563, Compound 918281] | < 100 nM | 100 to 1000 nM
CCC1(c2cccc(C)c2)C2=C(N=NC2)NC2=C1C(=O)CC1(CCCC1)C2 (configuration not stated) [US20250313563, Compound 789565] | < 100 nM | 100 to 1000 nM
CCC1(c2cccc(N3CCCCC3)c2)C2=C(CC(C)(C)NC2=O)NC2N=NC(C(F)(F)F)=C21 (configuration not stated) [US20250313563, Compound 947861] | < 100 nM | < 100 nM and 100 to 1000 nM
CC[C@@]1(c2cccc(-c3cc(C)nn3C)c2)C2=C(CC(C)(C)CC2=O)NC2N=NC(C(F)(F)F)=C21 (some centres not stated) [US20250313563, Compound 947384] | < 100 nM | < 100 nM and 100 to 1000 nM
CC[C@]1(c2cccc(C(F)F)c2)C2=CN=NC2NC2=C1C(=O)CC(C)(C)C2 (some centres not stated) [US20250313563, Compound 826717] | < 100 nM and 100 to 1000 nM | < 100 nM and 1000 to 5000 nM
CC[C@]1(c2cccc(N(C)c3cccc(F)n3)c2)C2=CN=NC2NC2=C1C(=O)CC(C)(C)C2 (some centres not stated) [US20250313563, Compound 932636] | < 100 nM | < 100 nM
CC1(C)CC(=O)C2=C(C1)NC1N=NC=C1[C@@]21CCCc2ccccc21 (some centres not stated) [US20250313563, Compound 930565] | 1000 to 5000 nM | > 5000 nM
CC[C@@]1(c2ccc(OC(C)C)cc2)C2=C(CC(C)(C)CC2=O)NC2N=NC(C(F)(F)F)=C21 (some centres not stated) [US20250313563, Compound 947873] | 100 to 1000 nM | 100 to 1000 nM
CC[C@@]1(c2cccc(-c3ccnc(C)c3)c2)C2=C(CC(C)(C)NC2=O)NC2N=NC(C)=C21 (some centres not stated) [US20250313563, Compound 948420] | < 100 nM | 100 to 1000 nM
CC1(C)CC(=O)C2=C(C1)NC1N=NC=C1C21CCCN(CC(F)F)CC1 (configuration not stated) [US20250313563, Compound 889574] | 100 to 1000 nM | 100 to 1000 nM
CC[C@@]1(c2cccc(C3=C(C)SN(C)C3)c2)C2=CN=NC2NC2=C1C(=O)NC1(CCCC1)C2 (some centres not stated) [US20250313563, Compound 950255] | 100 to 1000 nM | > 5000 nM
CC[C@]1(c2ccccc2)C2=CN=NC2NC2=C1C(=O)CC(C)(C)[C@@H]2F (some centres not stated) [US20250313563, Compound 957196] | > 5000 nM | > 5000 nM
CC[C@]1(c2cccc([C@@H]3CCOC3)c2)C2=CN=NC2NC2=C1C(=O)CC(C)(C)C2 (some centres not stated) [US20250313563, Compound 889557] | < 100 nM | < 100 nM
CC(C)c1nc(S(=O)(=O)N2CCC3(CC2)C2=C(N=NC2)NC2=C3C(=O)CC(C)(C)C2)cn1C [US20250313563, Compound 945663] | < 100 nM | < 100 nM
CC[C@]1(c2cccc(N(C)c3nccc(OC)n3)c2)C2=CN=NC2NC2=C1C(=O)CC(C)(C)C2 (some centres not stated) [US20250313563, Compound 947336] | < 100 nM and 100 to 1000 nM | < 100 nM and 1000 to 5000 nM
CC[C@]1(c2cccc(-c3c(C)nn(C)c3C)c2)C2=C(CC(C)(C)NC2=O)NC2N=NC(C)=C21 (some centres not stated) [US20250313563, Compound 947573] | 100 to 1000 nM | 1000 to 5000 nM

SMILES | IC50 [1] | IC50 [2]
CCC1(c2cccc(-c3ccnc(C)c3OC)c2)C2=CN=NC2NC2=C1C(=O)CC(C)(C)C2 (configuration not stated) [US20250313563, Compound 945458] | < 100 nM | < 100 nM
CC[C@]1(c2cccc(-c3cnn(C(C)(C)C)c3)c2)C2=CN=NC2NC2=C1C(=O)NC(C)(C)C2 (some centres not stated) [US20250313563, Compound 949107] | > 5000 nM | > 5000 nM
CC1(C)CC(=O)C2=C(C1)NC1N=NC=C1[C@]21CCCc2ccccc21 (some centres not stated) [US20250313563, Compound 930566] | < 100 nM | 100 to 1000 nM
CC[C@@]1(c2cccc(-c3cnn(CCN4CCCC4)c3)c2)C2=CN=NC2NC2=C1C(=O)NC(C)(C)C2 (some centres not stated) [US20250313563, Compound 952022] | 100 to 1000 nM | 1000 to 5000 nM
CCC1(c2cccc(N3CCOc4ncccc43)c2)C2=CN=NC2NC2=C1C(=O)CC(C)(C)C2 (configuration not stated) [US20250313563, Compound 918279] | < 100 nM | < 100 nM
CCC1(c2cccc(-c3ccncc3S(C)(=O)=O)c2)C2=CN=NC2NC2=C1C(=O)CC(C)(C)C2 (configuration not stated) [US20250313563, Compound 947569] | < 100 nM | < 100 nM
CC[C@]1(c2cccc(-c3ccncc3)c2)C2=CN=NC2NC2=C1C(=O)CC(C)(C)[C@@H]2F (some centres not stated) [US20250313563, Compound 959341] | 1000 to 5000 nM | 100 to 1000 nM
Cc1cnc2c(S(=O)(=O)N3CCC4(CC3)C3=C(N=NC3)NC3=C4C(=O)CC(C)(C)C3)cccc2c1 [US20250313563, Compound 947614] | < 100 nM | < 100 nM
CC1(C)CC(=O)C2=C(C1)NC1=C(CN=N1)C21CCSC1 (configuration not stated) [US20250313563, Compound 883973] | < 100 nM | 100 to 1000 nM
CC[C@]1(c2cccc(-c3c(C)nnn3C)c2)C2=CN=NC2NC2=C1C(=O)CC(C)(C)C2 (some centres not stated) [US20250313563, Compound 946099] | < 100 nM | < 100 nM and 100 to 1000 nM
CC[C@@]1(c2cccc(-c3ccncc3C(F)(F)F)c2)C2=C(N=NC2)NC2=C1C(=O)C(C)(C)C2 [US20250313563, Compound 952757] | 1000 to 5000 nM | > 5000 nM
CC[C@@]1(c2cccc(-c3cc(C)ncc3F)c2)C2=C(CC(C)(C)NC2=O)NC2N=NC(C)=C21 (some centres not stated) [US20250313563, Compound 949338] | < 100 nM | < 100 nM
CC[C@@]1(c2cccc(-c3ccncc3C)c2)C2=CN=NC2NC2=C1C(=O)N[C@@]1(CCOC1)C2 (some centres not stated) [US20250313563, Compound 948644] | < 100 nM | < 100 nM
CC[C@@]1(c2cccc(N3CCCC3)c2)C2=CN=NC2NC2=C1C(=O)CC(C)(C)C2 (some centres not stated) [US20250313563, Compound 810510] | < 100 nM | 100 to 1000 nM
CC1(C)CC(=O)C2=C(NC3=C(CN=N3)[C@]23CC[C@@H](C(F)(F)F)CC3)[C@@H]1F [US20250313563, Compound 918284] | < 100 nM | < 100 nM
CC1(C)CC(=O)C2=C(C1)NC1N=NC=C1[C@@]21CCCN(S(=O)(=O)Cc2ccccc2)CC1 (some centres not stated) [US20250313563, Compound 945473] | < 100 nM | 100 to 1000 nM
CC1(C)CC(=O)C2=C(C1)NC1=C(CN=N1)[C@@]21COC2(CCC2)C1 [US20250313563, Compound 917129] | 100 to 1000 nM | 100 to 1000 nM
CC(C)(C)CC1=C2C(N=N1)NC1=C(C(=O)CC(C)(C)C1)[C@@]21CCc2c(F)cccc21 (some centres not stated) [US20250313563, Compound 791257] | < 100 nM | < 100 nM
CO[C@H]1C[C@@]2(C1)C1=C(N=NC1)NC1=C2C(=O)CC(C)(C)C1 [US20250313563, Compound 901473] | > 5000 nM | > 5000 nM
CC[C@]1(c2cccc(-c3c(Cl)cncc3Cl)c2)C2=CN=NC2NC2=C1C(=O)NC(C)(C)C2 (some centres not stated) [US20250313563, Compound 948824] | 1000 to 5000 nM | > 5000 nM
CC[C@]1(c2cccc(-c3ccnc(N4CCCCC4)c3)c2)C2=CN=NC2NC2=C1C(=O)NC(C)(C)C2 (some centres not stated) [US20250313563, Compound 948646] | 1000 to 5000 nM | > 5000 nM
CC[C@@]1(c2cccc(N(C)c3ccnnc3)c2)C2=CN=NC2NC2=C1C(=O)CC(C)(C)C2 (some centres not stated) [US20250313563, Compound 915630] | 100 to 1000 nM | 1000 to 5000 nM
CC[C@]1(c2ccccc2)C2=CN=NC2NC2=C1C(=O)CC1(CCCC1)C2 (some centres not stated) [US20250313563, Compound 789562] | < 100 nM | 100 to 1000 nM
